In this experiment the test system is L1210 leukemia ip in BDF1 mice, survival T/C. Put plainly: NCI In Vivo Anticancer Drug Screen. Data for tumor model L1210 Leukemia (intraperitoneal) in B6D2F1 (BDF1) mice. Particulars: higher = longer survival. In a few lines:
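Transplantable tumor model; survival measured in treated vs vehicle control mice. Value = treated/control.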

The mark [1] stands for this setting: endpoint: mean survival time, dose: 100.0 mg/kg/injection, schedule: Q01DX001 (ip), vehicle: carboxymethylcellulose (CMC).
Setting [2] is: endpoint: mean survival time, dose: 100.0 mg/kg/injection, schedule: Q04DX002 (ip), vehicle: Klucel (hydroxypropylcellulose) (HPC).
Setting [3] is: endpoint: mean survival time, dose: 200.0 mg/kg/injection, schedule: Q01DX001 (ip), vehicle: carboxymethylcellulose (CMC).
Setting [4] is: endpoint: mean survival time, dose: 200.0 mg/kg/injection, schedule: Q04DX002 (ip), vehicle: Klucel (hydroxypropylcellulose) (HPC).
The mark [5] stands for this setting: endpoint: mean survival time, dose: 400.0 mg/kg/injection, schedule: Q04DX002 (ip), vehicle: Klucel (hydroxypropylcellulose) (HPC).
The mark [6] stands for this setting: endpoint: mean survival time, dose: 50.0 mg/kg/injection, schedule: Q01DX001 (ip), vehicle: saline.
The mark [7] stands for this setting: endpoint: mean survival time, dose: 100.0 mg/kg/injection, schedule: Q04DX003 (ip), vehicle: Klucel (hydroxypropylcellulose) (HPC).
Where [8] appears, read: endpoint: mean survival time, dose: 200.0 mg/kg/injection, schedule: Q04DX003 (ip), vehicle: Klucel (hydroxypropylcellulose) (HPC).
Where [9] appears, read: endpoint: mean survival time, dose: 400.0 mg/kg/injection, schedule: Q04DX003 (ip), vehicle: Klucel (hydroxypropylcellulose) (HPC).
Setting [10] is: endpoint: mean survival time, dose: 100.0 mg/kg/injection, schedule: Q04DX003 (ip), vehicle: saline with Tween-80.
[11] abbreviates: endpoint: mean survival time, dose: 200.0 mg/kg/injection, schedule: Q04DX003 (ip), vehicle: saline with Tween-80.
[12] abbreviates: endpoint: mean survival time, dose: 400.0 mg/kg/injection, schedule: Q04DX003 (ip), vehicle: saline with Tween-80.
[13] abbreviates: endpoint: mean survival time, dose: 100.0 mg/kg/injection, schedule: Q01DX009 (ip), vehicle: Klucel (hydroxypropylcellulose) (HPC).
The mark [14] stands for this setting: endpoint: mean survival time, dose: 200.0 mg/kg/injection, schedule: Q01DX009 (ip), vehicle: Klucel (hydroxypropylcellulose) (HPC).
Setting [15] is: endpoint: mean survival time, dose: 400.0 mg/kg/injection, schedule: Q01DX009 (ip), vehicle: Klucel (hydroxypropylcellulose) (HPC).

“And” between values parts separate entries of the source, which are not always exact repeats. Equal values may be shown once. Inconclusive results and toxic doses are left out.

With `O=C(O)c1ccc([N+](=O)[O-])cc1F`, the T/C under setting [1] was 101 % of control; the T/C (endpoint: mean survival time, dose: 100.0 mg/kg/injection, schedule: Q01DX009 (ip), vehicle: carboxymethylcellulose (CMC)) was 96 % of control and 116 % of control; the T/C under setting [2] is 90 % of control; the T/C (endpoint: mean survival time, dose: 100.0 mg/kg/injection, schedule: Q04DX002 (ip), vehicle: carboxymethylcellulose (CMC)) was 102 % of control and 107 % of control; the T/C (endpoint: mean survival time, dose: 100.0 mg/kg/injection, schedule: Q04DX003 (ip), vehicle: carboxymethylcellulose (CMC)) is 97 % of control; the T/C under setting [3] is 99 % of control. In addition, the T/C is 107 % of control and 89 % of control (endpoint: mean survival time, dose: 200.0 mg/kg/injection, schedule: Q01DX009 (ip), vehicle: carboxymethylcellulose (CMC)); 104 % of control under setting [4]; 99 % of control and 110 % of control (endpoint: mean survival time, dose: 200.0 mg/kg/injection, schedule: Q04DX002 (ip), vehicle: carboxymethylcellulose (CMC)); 100 % of control (endpoint: mean survival time, dose: 200.0 mg/kg/injection, schedule: Q04DX003 (ip), vehicle: carboxymethylcellulose (CMC)); 89 % of control (endpoint: mean survival time, dose: 400.0 mg/kg/injection, schedule: Q01DX009 (ip), vehicle: carboxymethylcellulose (CMC)); 93 % of control under setting [5]. In addition, the T/C (endpoint: mean survival time, dose: 400.0 mg/kg/injection, schedule: Q04DX002 (ip), vehicle: carboxymethylcellulose (CMC)) was 100 % of control and 86 % of control.
As for `CC(=O)N(N=O)c1cc(Cl)ccc1Cl`, the T/C is, setting by setting: under setting [6], 113 % of control; (endpoint: mean survival time, dose: 100.0 mg/kg/injection, schedule: Q01DX001 (ip), vehicle: saline) 110 % of control; (endpoint: mean survival time, dose: 200.0 mg/kg/injection, schedule: Q01DX001 (ip), vehicle: saline) 101 % of control; (endpoint: mean survival time, dose: 400.0 mg/kg/injection, schedule: Q01DX001 (ip), vehicle: saline) 107 % of control.
For the compound `CCCCNC(=O)Nc1ccccc1`, the T/C reads like this: under setting [7], 100 % of control; under setting [8], 112 % of control; under setting [9], 96 % of control.
As to `CC(=O)Oc1ccc(Br)cc1C=O`, the T/C is 100 % of control under setting [1]; 94 % of control under setting [3]; 103 % of control (endpoint: mean survival time, dose: 400.0 mg/kg/injection, schedule: Q01DX001 (ip), vehicle: carboxymethylcellulose (CMC)).
As to `c1ccc2c[n+](Cc3nc4ccccc4[nH]3)ccc2c1`, the T/C (endpoint: mean survival time, dose: 75.0 mg/kg/injection, schedule: Q01DX001 (ip), vehicle: saline) was 101 % of control.
On to `CCN(CC)C(=O)CS(=O)(=O)c1ccc(C)cc1`, for which the T/C is, setting by setting: under setting [10], 96 % of control; under setting [11], 110 % of control; under setting [12], 98 % of control.
In the case of `Cc1ccc(C)c(NC(=O)Nc2ccc(S(N)(=O)=O)cc2)c1`, the T/C is, setting by setting: under setting [13], 91 % of control; under setting [14], 92 % of control; under setting [15], 96 % of control.
`CCC(C)COC(=O)Nc1cccc(OC(=O)NC)c1` (stereo not drawn): the T/C is 97 % of control under setting [10], 102 % of control under setting [11] and 102 % of control under setting [12].
On to `O=C1NC(CCCl)C(=O)NC1CCCl` (stereo not drawn), for which the T/C (endpoint: mean survival time, dose: 50.0 mg/kg/injection, schedule: Q01DX001 (ip), vehicle: carboxymethylcellulose (CMC)) was 107 % of control; the T/C under setting [1] is 101 % of control; the T/C under setting [3] is 91 % of control.
Turning to `CCCCCCCCCCCCCC(=O)[O][Hg][c]1ccccc1`, the T/C (endpoint: mean survival time, dose: 75.0 mg/kg/injection, schedule: Q01DX001 (ip), vehicle: steriod suspending solution) was 96 % of control.
Consider `COC1CCC(NC(=O)N(CCCl)N=O)CC1` (stereo not drawn), for which the T/C is, setting by setting: (endpoint: mean survival time, dose: 3.5 mg/kg/injection, schedule: Q01DX001 (ip), vehicle: saline with Tween-80) 106 % of control; (endpoint: mean survival time, dose: 5.0 mg/kg/injection, schedule: Q01DX001 (ip), vehicle: saline with Tween-80) 110 % of control; (endpoint: mean survival time, dose: 8.0 mg/kg/injection, schedule: Q01DX001 (ip), vehicle: saline with Tween-80) 124 % of control; (endpoint: mean survival time, dose: 16.0 mg/kg/injection, schedule: Q01DX001 (ip), vehicle: saline with Tween-80) 155 % of control and 266 % of control; (endpoint: mean survival time, dose: 18.0 mg/kg/injection, schedule: Q01DX001 (ip), vehicle: saline with Tween-80) 221 % of control; (endpoint: mean survival time, dose: 24.0 mg/kg/injection, schedule: Q01DX001 (ip), vehicle: saline with Tween-80) 592 % of control. Moreover, the T/C (endpoint: mean survival time, dose: 26.0 mg/kg/injection, schedule: Q01DX001 (ip), vehicle: saline with Tween-80) is 302 % of control; the T/C (endpoint: mean survival time, dose: 35.0 mg/kg/injection, schedule: Q01DX001 (ip), vehicle: saline with Tween-80) is 404 % of control; the T/C (endpoint: mean survival time, dose: 40.0 mg/kg/injection, schedule: Q01DX001 (ip), vehicle: saline with Tween-80) was 340 % of control; the T/C (endpoint: mean survival time, dose: 53.0 mg/kg/injection, schedule: Q01DX001 (ip), vehicle: saline with Tween-80) was 193 % of control; the T/C (endpoint: mean survival time, dose: 60.0 mg/kg/injection, schedule: Q01DX001 (ip), vehicle: saline with Tween-80) is 294 % of control.
Regarding `COc1cc([C@@H]2c3cc4c(cc3C[C@H]3COC(=O)[C@@H]32)OCO4)cc(OC)c1OC`, the T/C runs as follows: (endpoint: mean survival time, dose: 3.12 mg/kg/injection, schedule: Q01DX009 (ip), vehicle: saline) 94 % of control; (endpoint: mean survival time, dose: 6.25 mg/kg/injection, schedule: Q01DX009 (ip), vehicle: saline) 109 % of control; (endpoint: mean survival time, dose: 12.5 mg/kg/injection, schedule: Q01DX001 (ip), vehicle: saline) 115 % of control; (endpoint: mean survival time, dose: 12.5 mg/kg/injection, schedule: Q01DX009 (ip), vehicle: saline) 110 % of control; (endpoint: mean survival time, dose: 25.0 mg/kg/injection, schedule: Q01DX001 (ip), vehicle: saline) 115 % of control; (endpoint: mean survival time, dose: 25.0 mg/kg/injection, schedule: Q01DX009 (ip), vehicle: saline) 116 % of control. The T/C reads like this: (endpoint: mean survival time, dose: 45.0 mg/kg/injection, schedule: Q01DX001 (ip), vehicle: saline) 123 % of control; (endpoint: mean survival time, dose: 50.0 mg/kg/injection, schedule: Q01DX001 (ip), vehicle: other) 109 % of control; (endpoint: mean survival time, dose: 50.0 mg/kg/injection, schedule: Q01DX001 (ip), vehicle: saline with Tween-80) 110 % of control; under setting [6], 111 % of control and 117 % of control; (endpoint: mean survival time, dose: 50.0 mg/kg/injection, schedule: Q04DX003 (ip), vehicle: saline with Tween-80) 116 % of control; (endpoint: mean survival time, dose: 100.0 mg/kg/injection, schedule: Q01DX001 (ip), vehicle: other) 116 % of control. The T/C reads like this: (endpoint: median survival time, dose: 2.5 mg/kg/injection, schedule: Q01DX009 (ip), vehicle: saline) 111 % of control; (endpoint: median survival time, dose: 5.0 mg/kg/injection, schedule: Q01DX009 (ip), vehicle: saline) 122 % of control; (endpoint: median survival time, dose: 10.0 mg/kg/injection, schedule: Q01DX009 (ip), vehicle: saline) 88 % of control.
In the case of `Cc1cc(C)c2c(c1C)OC(C)(C)C=C2`, the T/C by setting is: under setting [13], 98 % of control; under setting [7], 98 % of control; under setting [14], 100 % of control; under setting [8], 107 % of control; under setting [15], 97 % of control; under setting [9], 100 % of control.
On to `O=C/C=C\C=C/Nc1ccc([N+](=O)[O-])cc1[N+](=O)[O-]`, for which the T/C runs as follows: (endpoint: mean survival time, dose: 100.0 mg/kg/injection, schedule: Q04DX002 (ip), vehicle: DMSO) 94 % of control; (endpoint: mean survival time, dose: 200.0 mg/kg/injection, schedule: Q04DX002 (ip), vehicle: DMSO) 98 % of control; (endpoint: mean survival time, dose: 400.0 mg/kg/injection, schedule: Q04DX002 (ip), vehicle: DMSO) 102 % of control.
Take `CCCCCCCCCCC[CH2][Hg][CH2]CCCCCCCCCCC`: the T/C under setting [7] was 96 % of control, the T/C under setting [8] is 89 % of control and the T/C under setting [9] is 87 % of control.
For `O=Cc1cc(O)ccc1[N+](=O)[O-]`, the T/C runs as follows: (endpoint: mean survival time, dose: 100.0 mg/kg/injection, schedule: Q01DX009 (ip), vehicle: saline with Tween-80) 98 % of control; under setting [10], 103 % of control; (endpoint: mean survival time, dose: 200.0 mg/kg/injection, schedule: Q01DX009 (ip), vehicle: saline with Tween-80) 88 % of control; under setting [11], 104 % of control; under setting [12], 109 % of control.
Regarding `Cc1c(NC(=O)Nc2cc(C(F)(F)F)ccc2Cl)c(=O)n(-c2ccccc2)n1C`, the T/C under setting [2] is 96 % of control, the T/C under setting [4] was 96 % of control and the T/C under setting [5] is 105 % of control.

These data come from PubChem BioAssay AID248 (DTP/NCI, 2004).
